Source: patent US10961202B2, “Bis-benzimidazole compounds and methods of using the same” (THE SCRIPPS RESEARCH INSTITUTE, priority 2017, dated 2021)

Tested on: r(CUG)12-MBNL1 complex
Test: Inhibition of the r(CUG)12-MBNL1 complex measured by TR-FRET
Type: biochemical
Settings: Table M; 80 nM RNA, 60 nM MBNL1-His6

SMILES | IC50
COc1ccc2nc(-c3ccc(-c4nc5ccc(OC)cc5[nH]4)cc3)[nH]c2c1 [Compound 189, 1,4-Bis(6-methoxy-1H-benzo[d]imidazol-2-yl)benzene] | > 200 µM
Oc1ccc2nc(-c3ccc(-c4nc5ccc(O)cc5[nH]4)cc3)[nH]c2c1 [Compound 190, 2,2′-(1,4-phenylene)bis(1H-benzo[d]imidazol-6-ol)] | 179 µM
c1cc2nc(-c3ccc(-c4nc5ccc(OCCN6CCCCC6)cc5[nH]4)cc3)[nH]c2cc1OCCN1CCCCC1 [Compound 191] | 100 µM
CN(C)CCCCCOc1ccc2nc(-c3ccc(-c4nc5ccc(O)cc5[nH]4)cc3)[nH]c2c1 [Compound 193] | 36.7 µM
CN1CCC(COc2ccc3nc(-c4ccc(-c5nc6ccc(O)cc6[nH]5)cc4)[nH]c3c2)CC1 [Compound 194, 2-(4-(6-((1-methylpiperidin-4-yl)methoxy)-1H-benzo[d]imidazol-2-yl)phenyl)-1H-benzo[d]imidazol-6-ol] | 39 µM
Oc1ccc2nc(-c3ccc(-c4nc5ccc(OCCN6CCCCC6)cc5[nH]4)cc3)[nH]c2c1 [Compound 195] | 104 µM
CN1CCC[C@H]1COc1ccc2nc(-c3ccc(-c4nc5ccc(O)cc5[nH]4)cc3)[nH]c2c1 [Compound 196] | 106 µM
CN(C)CCCCOc1ccc2nc(-c3ccc(-c4nc5ccc(OCCCCN(C)C)cc5[nH]4)cc3)[nH]c2c1 [Compound 197, 4,4′-((1,4-phenylenebis(1H-benzo[d]imidazole-2,6-diyl))bis(oxy))bis(N,N-dimethylbutan-1-amine)] | 33.6 µM
CN1CCC[C@H]1COc1ccc2nc(-c3ccc(-c4nc5ccc(OC[C@@H]6CCCN6C)cc5[nH]4)cc3)[nH]c2c1 [Compound 199] | 47.8 µM
CN(C)CCCCOc1ccc2nc(-c3ccc(-c4nc5ccc(O)cc5[nH]4)cc3)[nH]c2c1 [Compound 200, 2-(4-(6-(4-(dimethylamino)butoxy)-1H-benzo[d]imidazol-2-yl)phenyl)-1H-benzo[d]imidazol-6-ol] | 32.1 µM
c1cc2nc(-c3ccc(-c4nc5ccc(OCCN6CCCC6)cc5[nH]4)cc3)[nH]c2cc1OCCN1CCCC1 [Compound 203] | 103 µM
Oc1ccc2nc(-c3ccc(-c4nc5ccc(OCCN6CCCC6)cc5[nH]4)cc3)[nH]c2c1 [Compound 204] | 129 µM
CC(=O)NCCN1CCN(CCNC(=O)c2ccc3nc(-c4ccc(-c5nc6ccc(C(=O)NCCN7CCCCC7)cc6[nH]5)cc4)[nH]c3c2)CC1 [Compound 206] | 64.4 µM
CN(C)CCCSCCOc1ccc2nc(-c3ccc(-c4nc5ccc(OCCSCCCN(C)C)cc5[nH]4)cc3)[nH]c2c1 [Compound 207] | 48.6 µM
CN1CCC(Oc2ccc3nc(-c4ccc(-c5nc6ccc(OC7CCN(C)CC7)cc6[nH]5)cc4)[nH]c3c2)CC1 [Compound 208] | 101 µM
CN(C)CCCCCCOc1ccc2nc(-c3ccc(-c4nc5ccc(O)cc5[nH]4)cc3)[nH]c2c1 [Compound 209] | 19.4 µM
CN(C)CCSCCOc1ccc2nc(-c3ccc(-c4nc5ccc(OCCSCCN(C)C)cc5[nH]4)cc3)[nH]c2c1 [Compound 210] | 33.3 µM

SMILES | IC50
CN(C)CCN(C)CCOc1ccc2nc(-c3ccc(-c4nc5ccc(OCCN(C)CCN(C)C)cc5[nH]4)cc3)[nH]c2c1 [Compound 211] | 112 µM
CN(C)Cc1cccc(COc2ccc3nc(-c4ccc(-c5nc6ccc(OCc7cccc(CN(C)C)c7)cc6[nH]5)cc4)[nH]c3c2)c1 [Compound 213, 1,1′-((((1,4-phenylenebis(1H-benzo[d]imidazole-2,6-diyl))bis(oxy))bis(methylene))bis(3,1-phenylene))bis(N,N-dimethylmethanamine)] | 22.8 µM
CN(C)CCCOc1cccc2nc(-c3ccc(-c4nc5cccc(OCCCN(C)C)c5[nH]4)cc3)[nH]c12 [Compound 215, 3,3′-((2,2′-(1,4-phenylene)bis(1H-benzo[d]imidazole-7,2-diyl))bis(oxy))bis(N,N-dimethylpropan-1-amine)] | 20.5 µM
CN(C)CCCOc1cccc2nc(-c3ccc(-c4nc5cccc(O)c5[nH]4)cc3)[nH]c12 [Compound 216, 2-(4-(7-(3-(dimethylamino)propoxy)-1H-benzo[d]imidazol-2-yl)phenyl)-1H-benzo[d]imidazol-7-ol] | 125 µM
CN(C)Cc1ccc(COc2ccc3nc(-c4ccc(-c5nc6ccc(OCc7ccc(CN(C)C)cc7)cc6[nH]5)cc4)[nH]c3c2)cc1 [Compound 217] | 51.9 µM
CN(C)C[C@H]1CC[C@H](COc2ccc3nc(-c4ccc(-c5nc6ccc(OC[C@H]7CC[C@H](CN(C)C)CC7)cc6[nH]5)cc4)[nH]c3c2)CC1 [Compound 218, 1,1′-((1r,1′r,4r,4′r)-(((1,4-phenylenebis(1H-benzo[d]imidazole-2,6-diyl))bis(oxy))bis(methylene))bis(cyclohexane-4,1-diyl))bis(N,N-dimethylmethanamine)] | 68.7 µM
CN(C)[C@H]1CC[C@H](Oc2ccc3nc(-c4ccc(-c5nc6ccc(O[C@H]7CC[C@H](N(C)C)CC7)cc6[nH]5)cc4)[nH]c3c2)CC1 [Compound 219] | 18.1 µM
CN(C)CCCCc1ccc2nc(-c3ccc(-c4nc5ccc(CCCCN(C)C)cc5[nH]4)cc3)[nH]c2c1 [Compound 220, 4,4′-(2,2′-(1,4-phenylene)bis(1H-benzo[d]imidazole-6,2-diyl))bis(N,N-dimethylbutan-1-amine)] | > 200 µM
CN(C)CCCOc1ccc2nc(-c3ccc(-c4nc5ccc(OCCCO)cc5[nH]4)cc3)[nH]c2c1 [Compound 222, 3-((2-(4-(5-(3-(dimethylamino)propoxy)-1H-benzo[d]imidazol-2-yl)phenyl)-1H-benzo[d]imidazol-5-yl)oxy)propan-1-ol] | 95.3 µM
OCCCOc1ccc2nc(-c3ccc(-c4nc5ccc(OCCCO)cc5[nH]4)cc3)[nH]c2c1 [Compound 223, 3,3′-((1,4-phenylenebis(1H-benzo[d]imidazole-2,5-diyl))bis(oxy))bis(propan-1-ol)] | > 200 µM
CN(C)CCCOc1ccc2nc(-c3ccc(-c4nc5ccc(OCCCCO)cc5[nH]4)cc3)[nH]c2c1 [Compound 224] | 63.4 µM
OCCCCOc1ccc2nc(-c3ccc(-c4nc5ccc(OCCCCO)cc5[nH]4)cc3)[nH]c2c1 [Compound 225] | 154 µM
CN(C)CC#CCOc1ccc2nc(-c3ccc(-c4nc5ccc(OCC#CCN(C)C)cc5[nH]4)cc3)[nH]c2c1 [Compound 226, 4,4′-((2,2′-(1,4-phenylene)bis(1H-benzo[d]imidazole-6,2-diyl))bis(oxy))bis(N,N-dimethylbut-2-yn-1-amine)] | > 200 µM
CN(C)Cc1cn(CCOc2ccc3nc(-c4ccc(-c5nc6ccc(OCCn7cc(CN(C)C)nn7)cc6[nH]5)cc4)[nH]c3c2)nn1 [Compound 227] | 120 µM
CN(C)CCCOc1ccc2nc(-c3ccc(-c4nc5ccc(SCCCN(C)C)cc5[nH]4)cc3)[nH]c2c1 [Compound 228, 3-((2-(4-(6-(3-(dimethylamino)propoxy)-1H-benzo[d]imidazol-2-yl)phenyl)-1H-benzo[d]imidazol-6-yl)thio)-N,N-dimethylpropan-1-amine] | 47.1 µM
N#Cc1ccc(Oc2ccc3nc(-c4ccc(-c5nc6ccc(Oc7ccc(C#N)cc7)cc6[nH]5)cc4)[nH]c3c2)cc1 [Compound 229, 4,4′-((2,2′-(1,4-phenylene)bis(1H-benzo[d]imidazole-6,2-diyl))bis(oxy))dibenzonitrile] | > 200 µM
